Source: patent US20080200535A1, “Amine Compounds” (Asahi Kasei Pharma Corporation, priority 2006, published 2008)

Assays:
[1] = system: adjuvant arthritis rat; test: Adjuvant-induced arthritis model; format: in vivo; details: 504 h, Lewis female rats, oral once daily for 21 days, dose required to suppress swelling of hind paw by 50% on the 21-th day
Method: Adjuvant-Induced Arthritis Model
7-weeks old Lewis female rats are used for evaluation. The volume of a hind paw of a rat was measured. As an adjuvant, 500 μg/100 μL of M. tuberclulosis H37 RA (manufactured by Difco) is subcutaneously injected into the plantar of the left hind paw, so that an adjuvant arthritis rat is produced. A compound which is suspended in a 1% methylcellulose solution is forcibly oral-administered to the stomach by using an oral sonde one-time everyday for 21 days from the injection date of the adjuvant. The evaluation of arthritis is performed by measuring the volume of paw of each tested subject by using PLETHYSMOMETER (manufactured by UGO BASILE) and comparing the measured deta of a compound-administered group with those of a solvent-administered group. Swelling of the plantar portion of hind leg of the solvent-administered group was set to 100%, and a control value (%) was calculated from the swelling of the compound-administered group. An ED50 value, that is, a dosed amount of the compound required to suppress the swelling of the plantar portion of hind paw on the 21-th day from the administration date of the adjuvant by 50% was calculated from the dosed amount of the compound and the control value (%).

[2] = system: peripheral lymphocytes; test: Evaluation of reduction in peripheral blood lymphocyte count; format: in vivo; details: 3 h; rat, oral; dose required to reduce the lymphocyte count by 50% in three hours from the administration
Method: Evaluation of Reduction in Peripheral Blood Lymphocyte count
A compound or a solvent was orally administered to a rat. When 3, 6, 24, 48, and 72 hours had elapsed since the administration of compound, blood was withdrawn from its tail vein. All the blood samples were analyzed hematologically. The total count of peripheral lymphocytes was measured by using an auto-analyzer (Sysmex 2000Xi). The effect of each compound to the total count of peripheral lymphocytes was evaluated by using three or more rats in one group. The reduction in lymphocyte count caused by the administration of compound was compared with that caused by the administration of solvent to a rat group. Namely, the average lymphocyte count of a solvent-administered group was set to 100%, and a control value (%) was calculated from the average lymphocyte count of a compound-administered group. An ED50 value, that is, a dosed amount of the compound required to reduce the lymphocyte count by 50% in three hours from the administration was calculated from the dosed amount of the compound and the control value (%).

[3] = target: T1, S1P1 receptor (Homo sapiens, UniProt P21453); test: 35S-GTPγS binding assay using membrane preparation of CHO cell stably expressing S1P1 receptor; format: biochemical; details: agonist activity
T1 construct: expressed in transfected cells; membrane preparation
T1 sequence (P21453 whole entry): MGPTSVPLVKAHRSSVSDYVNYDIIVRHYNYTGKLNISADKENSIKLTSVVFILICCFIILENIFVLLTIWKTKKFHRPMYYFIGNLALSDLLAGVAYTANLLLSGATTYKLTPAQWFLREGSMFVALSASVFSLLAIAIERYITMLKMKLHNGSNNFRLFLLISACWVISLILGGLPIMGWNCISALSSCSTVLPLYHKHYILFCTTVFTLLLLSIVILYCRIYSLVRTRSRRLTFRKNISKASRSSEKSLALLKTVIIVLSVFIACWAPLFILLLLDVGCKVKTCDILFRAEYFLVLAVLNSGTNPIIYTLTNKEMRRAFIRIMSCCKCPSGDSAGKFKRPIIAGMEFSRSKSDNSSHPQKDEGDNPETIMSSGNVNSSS
Method: ^35s-GTPγS binding assay using membrane preparation of CHO cell stably expressing S1P1 receptor
A G protein-GTPγS binding test associated with a ligand was performed by using a membrane preparation which was obtained from a CHO cell which stably overexpressed S1P1 receptor. In a 96 well-micro-titer dish, the produced membrane protein and a compound which was diluted with a solvent such as DMSO or sphingosine-1-phosphate in various concentrations was incubated in a solution containing 20 mM of Tris-Cl (pH7.5), 100 mM of NaCl, 10 mM of MgCl2, 5μM of GDP, 0.1% of BSA, and […] of ^35s-GTPγS (specific radioactivity, 1250 Ci mmol). The binding was performed for 1 or more hours at room temperature, and the membrane was harvested on a GF/B filter plate by using a Millipore's MultiScreen Separation System to end the binding. After the filter plate was dried for 30 or more minutes, 25 μL of MicroScint-20 was added to each well, and the binding was measured by using the TopCount.
For the agonist activity of compound, the value of a well which a solvent was added to was set to a control value and compared with an increment of an evaluation compound-added well, so that the increment of each concentration of the compound was obtained. EC50 value was calculated under the definition that the value is an agonist concentration required to provide 50% of the maximum increment thereof. […]

[4] = target: T2, S1P3 receptor (Homo sapiens, UniProt Q99500); test: 35S-GTPγS binding assay using membrane preparation of CHO cell temporarily expressing S1P3 receptor; format: biochemical; details: agonist activity, membrane of CHO cell temporarily transfected with S1P3 gene
T2 construct: expressed in transfected cells; host or cells: CHO cells, transient transfection; membrane protein
T2 sequence (Q99500 whole entry): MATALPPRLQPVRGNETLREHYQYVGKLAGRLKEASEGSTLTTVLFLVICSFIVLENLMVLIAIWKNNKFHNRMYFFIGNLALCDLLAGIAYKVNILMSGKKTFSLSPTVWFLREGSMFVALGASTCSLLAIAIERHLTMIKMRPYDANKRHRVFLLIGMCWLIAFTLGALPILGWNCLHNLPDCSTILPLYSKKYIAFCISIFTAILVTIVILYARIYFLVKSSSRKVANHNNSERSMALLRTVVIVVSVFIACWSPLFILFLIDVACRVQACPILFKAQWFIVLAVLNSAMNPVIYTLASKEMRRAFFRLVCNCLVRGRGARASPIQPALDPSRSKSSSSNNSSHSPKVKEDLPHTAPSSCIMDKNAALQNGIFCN
Method: ^35s-GTPγS binding assay using membrane preparation of CHO cell of temporarily expressing S1P3 receptor
A GTPγS binding test associated with S1P3 receptor was performed by using the same method as that of the GTPγS binding test associated with S1P1 receptor. In the test, a membrane protein which was produced from a CHO cell in which S1P3 gene was temporarily transfected was used.
For the agonist activity of compound, the value of a well which a solvent was added to was set to a control value and compared with an increment of an evaluation compound-added well, so that the increment of each concentration of the compound was obtained. EC50 value was calculated under the definition that the value is an agonist concentration required to provide 50% of the highest increment thereof.

Row | SMILES | EC50 [3] [nM] | EC50 [4] [nM] | ED50 [1] [mg/kg] | ED50 [2] [mg/kg]
1 | Cc1cc(-c2nc(-c3ccc(CNCCC(=O)O)cc3)no2)ccc1-c1ccccc1.Cl [Example 54] | 0.34 | – | 0.33 | 0.44
2 | Cl.N#Cc1ccccc1-c1ccc(-c2nc(-c3ccc(CNCCC(=O)O)cc3)no2)cc1OC(F)(F)F [Example 106] | 1.2 | – | – | 0.5
3 | Cc1cc(CNCCC(=O)O)ccc1-c1noc(-c2ccc(-c3ccccc3C#N)c(C)c2)n1 [Example 145] | 0.2 | – | – | 0.46
4 | Cl.O=C(O)CCNCc1ccc(-c2noc(-c3ccc(CCC(F)(F)F)cc3)n2)cc1 [Example 104] | 2.1 | – | – | 0.7
5 | O=C(O)C1CC(NCc2ccc(OCc3cc(-c4ccccc4)c(C(F)(F)F)s3)cc2)C1 (stereo not shown) [Example 6] | – | – | – | 5.1
6 | CC(C)Cc1ccc(-c2nc(-c3ccc(CNCCC(=O)O)cc3)no2)cc1.Cl [Example 40] | 0.5 | – | – | 0.71
7 | Cl.N#Cc1ccccc1-c1ccc(-c2nc(-c3ccc(CNCCC(=O)O)cc3)no2)cc1C#N [Example 90] | 1.4 | – | – | 4.1
8 | Cl.O=C(O)CCNCc1ccc(-c2noc(C3CCC(c4ccccc4)CC3)n2)cc1 (stereo not shown) [Example 61] | 1.5 | – | – | 0.53
9 | CC(C)COc1ccc(-c2nc(-c3ccc(CNCCC(=O)O)cc3)no2)cc1C(F)(F)F.Cl [Example 46] | 0.5 | – | – | 2.1

Further lines, with some results ahead:

Row | EC50 [3] [nM] | EC50 [4] [nM] | SMILES | ED50 [1] [mg/kg] | ED50 [2] [mg/kg]
10 | 0.72 | – | CC(C)Oc1ccc(-c2nc(-c3ccc(CN[C@H]4C[C@H](C(=O)O)C4)cc3)no2)cc1C(F)(F)F [Example 135] | 0.21 | 0.16
11 | 0.49 | – | Cl.O=C(O)CCNCc1ccc(-c2noc(-c3ccc(-c4ccccc4)c(OC(F)(F)F)c3)n2)cc1 [Example 105] | – | 0.084
12 | 0.26 | – | Cc1cc(-c2nc(-c3ccc(CNCCC(=O)O)cc3)no2)ccc1-c1ccccc1C#N.Cl [Example 78] | – | 0.37
13 | 0.25 | – | Cl.O=C(O)CCNCc1ccc(-c2noc(-c3ccc(-c4ccccc4)c(C(F)(F)F)c3)n2)cc1 [Example 94] | – | 0.087
14 | 0.48 | – | Cl.N#Cc1ccccc1-c1ccc(-c2nc(-c3ccc(CNCCC(=O)O)cc3)no2)cc1C(F)(F)F [Example 93] | – | 0.64
15 | 0.07 | – | Cc1cc(-c2nc(-c3ccc(CNCCC(=O)O)cc3)no2)ccc1-c1ccoc1.Cl [Example 117] | – | 0.88
16 | 2.4 | – | Cc1cc(CNC2CC(C(=O)O)C2)ccc1-c1noc(-c2ccc(-c3ccccc3C#N)c(C)c2)n1 (stereo not shown) [Example 147] | – | 0.72
17 | 34 | 870 | O=C(O)[C@H]1CCC[C@H](NCc2ccc(OCc3cc(-c4ccccc4)c(C(F)(F)F)s3)cc2)C1 [Example 4] | – | –
18 | 4 | 117 | O=C(O)[C@H]1CC[C@H](NCc2ccc(OCc3cc(-c4ccccc4)c(C(F)(F)F)s3)cc2)C1 [Example 25] | – | –
